Test results reported in the supplement of paper PMC11061612.

What was measured:
AZD8186 = compound: C[C@@H](Nc1cc(F)cc(F)c1)c1cc(C(=O)N(C)C)cc2c(=O)cc(N3CCOCC3)oc12 [AZD8186]; conditions: max 10 µM
In short: (§1)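 After 24 hours at 37°C and 5% CO2 in 1536-well plates holding 7.5 μl of DMEM/F12 or RPMI with 10% FBS, cancer cell lines were dosed for 72 hours, with final DMSO typically 0.2%. Viability came from CellTiter-Glo 2.0 luminescence, scaled between the means of blank wells and DMSO wells. A non-linear mixed effects model fitted a two-parameter logistic curve to each dose response to give the single-agent IC50.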

Paclitaxel = compound: CC(=O)O[C@H]1C(=O)[C@@]2(C)[C@H]([C@H](OC(=O)c3ccccc3)[C@]3(O)C[C@H](OC(=O)[C@H](O)[C@@H](NC(=O)c4ccccc4)c4ccccc4)C(C)=C1C3(C)C)[C@]1(OC(C)=O)CO[C@@H]1C[C@@H]2O [Paclitaxel]; conditions: max 3 µM
In short: as §1

AZD5363 = compound: C1CN(CCC1(C(=O)N[C@@H](CCO)C2=CC=C(C=C2)Cl)N)C3=NC=NC4=C3C=CN4 [AZD5363]; conditions: max 10 µM
In short: as §1

AZD6738 = compound: C[C@@H]1COCCN1C2=NC(=NC(=C2)C3(CC3)[S@](=N)(=O)C)C4=C5C=CNC5=NC=C4 [AZD6738]; conditions: max 10 µM
In short: as §1

5-Fluorouracil = compound: O=c1[nH]cc(F)c(=O)[nH]1 [5-Fluorouracil]; conditions: max 20 µM
In short: as §1

SRA737 = compound: N#Cc1cnc(Nc2cc(NC[C@H]3CNCCO3)c(C(F)(F)F)cn2)cn1 [SRA737]; conditions: max 10 µM
In short: as §1

Gefitinib = compound: COc1cc2ncnc(Nc3ccc(F)c(Cl)c3)c2cc1OCCCN1CCOCC1 [Gefitinib]; conditions: max 10 µM
In short: as §1

Selumetinib = compound: Cn1cnc2c(F)c(Nc3ccc(Br)cc3Cl)c(C(=O)NOCCO)cc21 [Selumetinib]; conditions: max 10 µM
In short: as §1

Etoposide = compound: COc1cc([C@@H]2c3cc4c(cc3[C@@H](O[C@@H]3O[C@@H]5CO[C@@H](C)O[C@H]5[C@H](O)[C@H]3O)[C@H]3COC(=O)[C@H]23)OCO4)cc(OC)c1O [Etoposide]; conditions: max 10 µM
In short: as §1

Doxorubicin = compound: COc1cccc2c1C(=O)c1c(O)c3c(c(O)c1C2=O)C[C@@](O)(C(=O)CO)C[C@@H]3O[C@H]1C[C@H](N)[C@H](O)[C@H](C)O1 [Doxorubicin]; conditions: max 1 µM
In short: as §1

Crizotinib = compound: C[C@@H](Oc1cc(-c2cnn(C3CCNCC3)c2)cnc1N)c1c(Cl)ccc(F)c1Cl [Crizotinib]; conditions: max 10 µM
In short: as §1

Savolitinib = compound: C[C@@H](c1ccc2nccn2c1)n1nnc2ncc(-c3cnn(C)c3)nc21 [Savolitinib]; conditions: max 1 µM
In short: as §1

Gemcitabine = compound: Nc1ccn([C@@H]2O[C@H](CO)[C@@H](O)C2(F)F)c(=O)n1 [Gemcitabine]; conditions: max 0.3 µM
In short: as §1

[1] = compound: O=C(Nc1ccc2[nH]nc(-c3ccncc3)c2c1)[C@@H]1CCN(CC(=O)N2CCN(c3ccc(-c4ncccn4)cc3)CC2)C1; conditions: max 5 µM
In short: as §1

MK-2206 = compound: NC1(c2ccc(-c3nc4ccn5c(=O)[nH]nc5c4cc3-c3ccccc3)cc2)CCC1 [MK-2206]; conditions: max 10 µM
In short: as §1

Prexasertib = compound: COc1cccc(OCCCN)c1-c1cc(Nc2cnc(C#N)cn2)n[nH]1 [Prexasertib]; conditions: max 1 µM
In short: as §1

AZD1775 = compound: C=CCn1c(=O)c2cnc(Nc3ccc(N4CCN(C)CC4)cc3)nc2n1-c1cccc(C(C)(C)O)n1 [AZD1775]; conditions: max 3 µM
In short: as §1

AZD5991 = compound: Cc1c2c(nn1C)CSCc1cc(n(C)n1)CSc1cc(c3ccccc3c1)OCCCc1c(C(=O)O)n(C)c3c-2c(Cl)ccc13 [AZD5991]; conditions: max 1 µM
In short: as §1

Dasatinib = compound: CC1=C(C(=CC=C1)Cl)NC(=O)C2=CN=C(S2)NC3=CC(=NC(=N3)C)N4CCN(CC4)CCO [Dasatinib]; conditions: max 2 µM
In short: as §1

SN-38 = compound: CCc1c2c(nc3ccc(O)cc13)-c1cc3c(c(=O)n1C2)COC(=O)[C@]3(O)CC [SN-38]; conditions: max 0.3 µM
In short: as §1

Olaparib = compound: O=C(c1cc(Cc2n[nH]c(=O)c3ccccc23)ccc1F)N1CCN(C(=O)C2CC2)CC1 [Olaparib]; conditions: max 10 µM
In short: as §1

AZD0156 = compound: CN(C)CCCOc1ccc(-c2ccc3ncc4c(c3c2)n(C2CCOCC2)c(=O)n4C)cn1 [AZD0156]; conditions: max 3 µM
In short: as §1

Carboplatin = compound: C1CC(C1)(C(=O)[O-])C(=O)[O-].N.N.[Pt+2] [Carboplatin]; conditions: max 10 µM
In short: as §1

Lapatinib = compound: CS(=O)(=O)CCNCc1ccc(-c2ccc3ncnc(Nc4ccc(OCc5cccc(F)c5)c(Cl)c4)c3c2)o1 [Lapatinib]; conditions: max 10 µM
In short: as §1

Taselisib = compound: Cc1nc(-c2cn3c(n2)-c2ccc(-c4cnn(C(C)(C)C(N)=O)c4)cc2OCC3)n(C(C)C)n1 [Taselisib]; conditions: max 10 µM
In short: as §1

AZD7648 = compound: Cc1cc2ncnn2cc1Nc1ncc2c(n1)n(C1CCOCC1)c(=O)n2C [AZD7648]; conditions: max 10 µM
In short: as §1

AZD1390 = compound: CC(C)n1c(=O)n(C)c2cnc3cc(F)c(-c4ccc(OCCCN5CCCCC5)nc4)cc3c21 [AZD1390]; conditions: max 0.3 µM
In short: as §1

SG3199 = compound: CC1=CN2[C@@H](C1)C=NC3=CC(=C(C=C3C2=O)OC)OCCCCCOC4=C(C=C5C(=C4)N=C[C@@H]6CC(=CN6C5=O)C)OC [SG3199]; conditions: max 0.001 µM
In short: as §1

Palbociclib = compound: CC(=O)c1c(C)c2cnc(Nc3ccc(N4CCNCC4)cn3)nc2n(C2CCCC2)c1=O [Palbociclib]; conditions: max 10 µM
In short: as §1

AZD4320 = compound: CN(CC[C@H](CSC1=CC=CC=C1)NC2=C(C=C(C=C2)S(=O)(=O)NC(=O)C3=CC=C(C=C3)N4CCC(CC4)[C@H](C5=CC=CC=C5C6=CC=C(C=C6)Cl)O)S(=O)(=O)C(F)(F)F)CCO [AZD4320]; conditions: max 1 µM
In short: as §1

Alisertib = compound: COc1cc(Nc2ncc3c(n2)-c2ccc(Cl)cc2C(c2c(F)cccc2OC)=NC3)ccc1C(=O)O [Alisertib]; conditions: max 10 µM
In short: as §1

AZD5153 = compound: COc1nnc2ccc(N3CCC(c4ccc(OCCN5CCN(C)C(=O)[C@H]5C)cc4)CC3)nn12 [AZD5153]; conditions: max 1 µM
In short: as §1

Trametinib = compound: CC(=O)Nc1cccc(-n2c(=O)n(C3CC3)c(=O)c3c(Nc4ccc(I)cc4F)n(C)c(=O)c(C)c32)c1 [Trametinib]; conditions: max 1 µM
In short: as §1

Venetoclax = compound: CC1(C)CCC(CN2CCN(c3ccc(C(=O)NS(=O)(=O)c4ccc(NCC5CCOCC5)c([N+](=O)[O-])c4)c(Oc4cnc5[nH]ccc5c4)c3)CC2)=C(c2ccc(Cl)cc2)C1 [Venetoclax]; conditions: max 1 µM
In short: as §1

AZD2811 = compound: CCN(CCO)CCCOc1ccc2c(Nc3cc(CC(=O)Nc4cccc(F)c4)[nH]n3)ncnc2c1 [AZD2811]; conditions: max 1 µM
In short: as §1

Cell Line | IC50, cell viability 72 h (AZD8186) | IC50, cell viability 72 h (Paclitaxel) | IC50, cell viability 72 h (AZD5363) | IC50, cell viability 72 h (AZD6738) | IC50, cell viability 72 h (5-Fluorouracil) | IC50, cell viability 72 h (SRA737) | IC50, cell viability 72 h (Gefitinib) | IC50, cell viability 72 h (Selumetinib) | IC50, cell viability 72 h (Etoposide) | IC50, cell viability 72 h (Doxorubicin) | IC50, cell viability 72 h (Crizotinib) | IC50, cell viability 72 h (Savolitinib) | IC50, cell viability 72 h (Gemcitabine) | IC50, cell viability 72 h [1] | IC50, cell viability 72 h (MK-2206) | IC50, cell viability 72 h (Prexasertib) | IC50, cell viability 72 h (AZD1775) | IC50, cell viability 72 h (AZD5991) | IC50, cell viability 72 h (Dasatinib) | IC50, cell viability 72 h (SN-38) | IC50, cell viability 72 h (Olaparib) | IC50, cell viability 72 h (AZD0156) | IC50, cell viability 72 h (Carboplatin) | IC50, cell viability 72 h (Lapatinib) | IC50, cell viability 72 h (Taselisib) | IC50, cell viability 72 h (AZD7648) | IC50, cell viability 72 h (AZD1390) | IC50, cell viability 72 h (SG3199) | IC50, cell viability 72 h (Palbociclib) | IC50, cell viability 72 h (AZD4320) | IC50, cell viability 72 h (Alisertib) | IC50, cell viability 72 h (AZD5153) | IC50, cell viability 72 h (Trametinib) | IC50, cell viability 72 h (Venetoclax) | IC50, cell viability 72 h (AZD2811)
SK-OV-3 (Ovarian Carcinoma) | > 10000 nM | 732 nM | > 10000 nM | > 10000 nM | > 20000 nM | > 10000 nM | > 10000 nM | > 10000 nM | > 10000 nM | > 1000 nM | > 10000 nM | > 1000 nM | > 300 nM | > 5000 nM | > 10000 nM | 35.5 nM | 2450 nM | > 1000 nM | > 2000 nM | > 300 nM | > 10000 nM | > 3000 nM | > 10000 nM | > 10000 nM | 2680 nM | > 10000 nM | > 300 nM | > 1 nM | > 10000 nM | > 1000 nM | > 10000 nM | > 1000 nM | > 1000 nM | > 1000 nM | > 1000 nM
SU-DHL-6 (B-Cell Non-Hodgkin's Lymphoma) | 228 nM | 4.04 nM | 301 nM | > 10000 nM | > 20000 nM | > 10000 nM | > 10000 nM | > 10000 nM | 1260 nM | 181 nM | 2840 nM | > 1000 nM | 36.4 nM | > 5000 nM | 569 nM | > 1000 nM | 676 nM | 32.6 nM | 17.8 nM | 8.04 nM | > 10000 nM | 2970 nM | > 10000 nM | 4980 nM | 14.4 nM | > 10000 nM | > 300 nM | > 1 nM | 3570 nM | 107 nM | 1090 nM | 48.9 nM | > 1000 nM | 244 nM | > 1000 nM
